The values below come from PMC10165932, “Tripeptides conjugated with thiosemicarbazones: new inhibitors of tyrosinase for cosmeceutical use” (Journal of Enzyme Inhibition and Medicinal Chemistry, 2023).

In test [1] the target is T1, mushroom tyrosinase (Agaricus bisporus, UniProt C7FF04). Kind of test: Tyrosinase inhibition assay (diphenolase activity, L-DOPA substrate). The following applies: for IC50 / tyrosinase inhibition (in words): diphenolase activity; for IC50: L-DOPA 5 mM; for tyrosinase inhibition (in words): tested range of concentrations. The test is classed as biochemical. On the procedure:
The tyrosinase enzymatic assay was performed according to the protocol described previously in our papers[46–48] using L-3,4-dihydroxyphenylalanine (L-DOPA) (Sigma-Aldrich, Germany) as a substrate. L-DOPA was dissolved in an aqueous 0.15 mM phosphoric(V) acid solution, preventing its oxidation. […] Tyrosinase powder (Sigma-Aldrich, Germany) was dissolved in the assay buffer to obtain a concentration of 50,000 units/mL. This stock solution was divided into 50 μL aliquots, each one containing 2500 units of tyrosinase, and stored at −80 °C. Shortly before the assay, one of the aliquots was reconstituted in the assay buffer up to 3000 μL. First, 10 μL of the diluted enzyme solution was preincubated with samples at various concentrations for 5 min at 25 °C. Afterwards, 20 μL of L-DOPA solution was added.
The screening of tyrosinase activity of the synthetic compounds was performed according to the procedure previously reported in our articles.[46–48] As reported in most of the research dealing with tyrosinase inhibition, we employed mushroom tyrosinase, due to the lack of information and the limited availability of human tyrosinase.[59]^,[60] All the compounds were evaluated at different concentrations after incubation with tyrosinase in solution for 5 min at room temperature. Afterwards, the substrate L-DOPA was added to start the enzymatic reaction. The absorbance provided by the colourful derivative, dopachrome, was measured every 5 s for 10 min in order to monitor the progress of the reaction over time. […] (1) % of ENZactivity=Sampleslope/ECslope×100

For test [2], the system named is B16F0 murine melanoma cell line. In words: cells. The test is classed as cell-based. The following applies: for % Of melanogenesis inhibition at a specific inhibitor concentration / inhibition at 10 µM / inhibition at 40 µM: B16F0, 48 h; for inhibition at 10 µM / inhibition at 40 µM: read-out: % Of melanogenesis inhibition at a specific inhibitor concentration. How it is done: The effect of the synthetic compounds on melanogenesis inhibition was performed in B16F0 murine melanoma cell line. The mouse model of human skin is often employed in skin biology and cancer research due to numerous similarities.[62] B16F0 murine melanoma cell line shares most of the melanogenesis with human melanocytes. Therefore, it is the proper model for screening the effect of potential inhibitors on melanogenesis.[63]

Test [3] shares this test system. In words: cells. The test is classed as cell-based. The following applies: 48 h. How it is done: B16F0 murine melanoma cell line was cultured in DMEM (Biowest, Nuaillé, France) medium supplemented with 100 U/ml streptomycin (Sigma-Aldrich, Taufkirchen, Germany), 100 U/ml penicillin (Sigma-Aldrich, Taufkirchen, Germany), and 10% foetal bovine serum (Sigma-Aldrich, Taufkirchen, Germany). Cells were maintained in 5% CO2 at 37 °C. Cells viability was estimated by MTT colorimetric assay as described by Bellei et al.[51] B16 cells were seeded into 96-well plate (4 × 10^3 cells/well) and incubated in the presence of the investigated compounds at various concentrations (1000, 400, 100, 40, 10, 1, 0.1 μM) for 48 h. Kojic acid and DMSO were used as controls. MTT was added into wells (0.625 mg/ml, Sigma-Aldrich, Taufkirchen, Germany) for the last 4 h. Then lysing buffer was added to dissolve insoluble formazan. The absorbance was measured (λ = 570 nm) using Thermo Lab Multiscan RC microplate reader.

For test [4], the target named is T1, mushroom tyrosinase. Particulars: cited from earlier work; for tyrosinase inhibition (in words): previous paper.
The subject of test [5] is B16F0 murine melanoma cell line. Also on record: method as in PMID 30248509. Particulars: previous paper; read-out: IC50 value for melanogenesis; cited from earlier work.
Setting [6] is: n = 3, read-out: The maximum percentage of inhibition reached for poor inhibitors.
[7] abbreviates: Mus musculus, B16F0, n = 3, read-out: IC50 of melanin production.
Setting [8] is: Mus musculus, B16F0, MTT, n = 3, read-out: IC50 of cell proliferation.

“And” between values parts separate entries of the source, which are not always exact repeats. Equal entries are not always repeated. Where two headings read alike, the source gives them in different places. Where a SMILES comes first, the peptide text is derived from it.

T1 sequence (C7FF04 1-392): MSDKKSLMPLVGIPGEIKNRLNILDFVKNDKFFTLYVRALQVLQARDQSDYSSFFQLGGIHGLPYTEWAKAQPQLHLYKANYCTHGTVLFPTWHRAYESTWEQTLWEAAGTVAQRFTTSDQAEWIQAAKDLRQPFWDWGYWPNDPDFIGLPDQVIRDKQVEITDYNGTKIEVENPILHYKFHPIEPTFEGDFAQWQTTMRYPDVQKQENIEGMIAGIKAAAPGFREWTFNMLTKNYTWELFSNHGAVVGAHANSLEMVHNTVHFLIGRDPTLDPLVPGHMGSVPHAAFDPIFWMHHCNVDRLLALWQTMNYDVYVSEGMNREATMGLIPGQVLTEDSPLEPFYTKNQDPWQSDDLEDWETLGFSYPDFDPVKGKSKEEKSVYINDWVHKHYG

Consider `CC(C(=O)N[C@@H](Cc1ccccc1)C(=O)N[C@@H](Cc1ccccc1)C(=O)N[C@@H](Cc1ccc(O)cc1)C(=O)O)c1cccc(C(=NNC(N)=S)c2ccccc2)c1` (mixture of isomers) [Compound 10, TSC2-FFY-OH], for which, at mushroom tyrosinase [1] (setting [6]), the inhibition at 250 µM worked out at 45%. Also, the “% Of melanogenesis inhibition at a specific inhibitor concentration” value (from here on “% Of melanogenesis inhibition”) in test [2] (10 µM) was 0%; in test [2] (40 µM), 4%. Further, the IC50 in test [2] (24 h) was found to be 146 µM; in test [3], 77.4 µM.

For `CC(C(=O)N[C@@H](Cc1ccccc1)C(=O)N[C@@H](Cc1ccc(O)cc1)C(=O)N[C@@H](Cc1ccc(O)cc1)C(=O)O)c1cccc(C(=NNC(N)=S)c2ccccc2)c1` (mixture of isomers) [Compound 11, TSC2-FYY-OH], the inhibition at 250 µM on mushroom tyrosinase [1] (setting [6]) worked out at 36%. The “% Of melanogenesis inhibition” value in test [2] (10 µM) and in test [2] (40 µM) was 0% throughout. The molecule also gave an IC50 in test [3] of 77.2 µM.

Turning to `CC(C(=O)N[C@@H](Cc1ccccc1)C(=O)N[C@@H](Cc1c[nH]c2ccccc12)C(=O)N[C@@H](Cc1ccc(O)cc1)C(=O)O)c1cccc(C(=NNC(N)=S)c2ccccc2)c1` (mixture of isomers) [Compound 12, TSC2-FWY-OH], on mushroom tyrosinase [1] (setting [6]), the inhibition at 250 µM was 50%. Also, the “% Of melanogenesis inhibition” value in test [2] (10 µM) was determined as 0%; in test [2] (40 µM), 3%. The IC50 in test [2] (24 h) came to 89.9 µM; in test [3] it was 63.2 µM.

On to `CC(C(=O)O)c1cccc(/C(=N\NC(N)=S)c2ccccc2)c1` (centres unmarked) [Compound 2, thiosemicarbazone of ketoprofen], for which the inhibition at 150 µM on mushroom tyrosinase [1] (at 150 μM, n = 3, read-out: The maximum percentage of inhibition reached for poor inhibitors) is 34%. The IC50 on mushroom tyrosinase [1] (n = 3) was over 150 µM; in test [2] (setting [7]) it was 19.8 µM; in test [3] (setting [8]), 71.5 µM. Further, on mushroom tyrosinase [1], the “tyrosinase inhibition (in words)” value is “no significant inhibition towards tyrosinase”. Further, the inhibition at 10 µM in test [2] (Mus musculus, 10 µM) amounted to 28%. The inhibition at 40 µM in test [2] (Mus musculus, 40 µM) is 77%.

With `CC(=O)N[C@@H](Cc1ccccc1)C(=O)N[C@@H](Cc1ccccc1)C(=O)N[C@@H](Cc1ccc(O)cc1)C(=O)O` [Compound 4, Ac-FFY-OH] (Ac-Phe-Phe-Tyr-OH), the IC50 was 240 µM on mushroom tyrosinase [4] (tyrosinase inhibition, read-out: IC50 found in the literature); 246 µM in test [2] (24 h); 106 µM in test [3]. Also, the “tyrosinase inhibition (in words)” value at mushroom tyrosinase [1] is “no significant inhibition was observed in the tested range of concentrations”. The “% Of melanogenesis inhibition” value was found to be 1% in test [2] (10 µM) and 3% in test [2] (40 µM).

On to `CC(=O)N[C@@H](Cc1ccccc1)C(=O)N[C@@H](Cc1ccc(O)cc1)C(=O)N[C@@H](Cc1ccc(O)cc1)C(=O)O` [Compound 5, Ac-FYY-OH] (Ac-Phe-Tyr-Tyr-OH), for which, at mushroom tyrosinase [1], the “tyrosinase inhibition (in words)” value was “no significant inhibition was observed in the tested range of concentrations”. Moreover, the “% Of melanogenesis inhibition” value in test [2] (10 µM) was found to be 0%; in test [2] (40 µM), 2%. The IC50 stood at 175 µM in test [2] (24 h) and 96.6 µM in test [3].

As for `CC(=O)N[C@@H](Cc1ccccc1)C(=O)N[C@@H](Cc1c[nH]c2ccccc12)C(=O)N[C@@H](Cc1ccc(O)cc1)C(=O)O` [Compound 6, Ac-FWY-OH] (Ac-Phe-Trp-Tyr-OH), the “tyrosinase inhibition (in words)” value at mushroom tyrosinase [1] is reported as “no significant inhibition was observed in the tested range of concentrations”. In addition, the “% Of melanogenesis inhibition” value was 0% in test [2] (10 µM) and 4% in test [2] (40 µM). Also, the IC50 in test [2] (24 h) amounted to 141 µM; in test [3], 81 µM.

In the case of `NC(=S)N/N=C/c1ccc(C(=O)N[C@@H](Cc2ccccc2)C(=O)N[C@@H](Cc2ccccc2)C(=O)N[C@@H](Cc2ccc(O)cc2)C(=O)O)cc1` [Compound 7, TSC1-FFY-OH], the inhibition at 250 µM at mushroom tyrosinase [1] (setting [6]) worked out at 77%. Also, the IC50 against mushroom tyrosinase [1] (n = 3) is over 150 µM; in test [2] (24 h), 138 µM; in test [3], 72.8 µM. Further, the figures for the “% Of melanogenesis inhibition” value in test [2] (10 µM) and in test [2] (40 µM) were 1% and 10%, respectively.

As to `NC(=S)N/N=C/c1ccc(C(=O)N[C@@H](Cc2ccccc2)C(=O)N[C@@H](Cc2ccc(O)cc2)C(=O)N[C@@H](Cc2ccc(O)cc2)C(=O)O)cc1` [Compound 8, TSC1-FYY-OH], the IC50 against mushroom tyrosinase [1] (n = 3) was 6.5 µM and 6.57 µM; in test [2] (24 h), 158 µM; in test [3], 99 µM. Besides, the “% Of melanogenesis inhibition” value in test [2] (10 µM) is reported as 3%; in test [2] (40 µM), 12%.

Consider `NC(=S)N/N=C/c1ccc(C(=O)N[C@@H](Cc2ccccc2)C(=O)N[C@@H](Cc2c[nH]c3ccccc23)C(=O)N[C@@H](Cc2ccc(O)cc2)C(=O)O)cc1` [Compound 9, TSC1-FWY-OH], for which the IC50 on mushroom tyrosinase [1] (n = 3) was 6.5 µM and 6.66 µM; in test [2] (24 h), 151 µM; in test [3], 77.1 µM. The “% Of melanogenesis inhibition” value in test [2] (10 µM) was 0%; in test [2] (40 µM) it was 11%.

As to `C/C(=N\NC(N)=S)c1ccc(C(=O)N[C@@H](Cc2ccccc2)C(=O)N[C@@H](Cc2ccccc2)C(=O)N[C@@H](Cc2ccc(O)cc2)C(=O)O)cc1` [Compound 13, TSC3-FFY-OH], the inhibition at 250 µM at mushroom tyrosinase [1] (setting [6]) was determined as 62%. Further, the values for the IC50 (on mushroom tyrosinase [1] (n = 3); in test [2] (24 h); in test [3]) were over 150 µM, 162 µM and 49.8 µM, respectively. Also, the “% Of melanogenesis inhibition” value in test [2] (10 µM) came to 0%; in test [2] (40 µM) it was 3%.

For `C/C(=N\NC(N)=S)c1ccc(C(=O)N[C@@H](Cc2ccccc2)C(=O)N[C@@H](Cc2ccc(O)cc2)C(=O)N[C@@H](Cc2ccc(O)cc2)C(=O)O)cc1` [Compound 14, TSC3-FYY-OH], the IC50 against mushroom tyrosinase [1] (n = 3) stood at 26.1 ± 9 µM; in test [2] (24 h), 145 µM; in test [3] it was 83.7 µM. Also, the “% Of melanogenesis inhibition” value in test [2] (10 µM) was found to be 0%; in test [2] (40 µM) it was 4%.

With `C/C(=N\NC(N)=S)c1ccc(C(=O)N[C@@H](Cc2ccccc2)C(=O)N[C@@H](Cc2c[nH]c3ccccc23)C(=O)N[C@@H](Cc2ccc(O)cc2)C(=O)O)cc1` [Compound 15, TSC3-FWY-OH], the figures for the IC50 (against mushroom tyrosinase [1] (n = 3); in test [2] (24 h); in test [3]) were 25.1 ± 2.5 µM, 67.1 µM and 67.5 µM, respectively. Moreover, the “% Of melanogenesis inhibition” value is 5% in test [2] (10 µM) and 20% in test [2] (40 µM).

In the case of `O=c1cc(CO)occ1O` [Kojic acid, reference compound], in test [2] (Mus musculus, 10 µM), the inhibition at 10 µM was found to be 1%. In addition, the inhibition at 40 µM in test [2] (Mus musculus, 40 µM) stood at 12%. Moreover, the IC50 in test [2] (setting [7]) turned out to be 121 µM; in test [3] (setting [8]) it was 162 µM.

Take `NC(=S)N/N=C(\Cc1ccccc1)c1ccccc1` [thiosemicarbazone of (E)-2-phenylacetophenone]: on mushroom tyrosinase [4], the “tyrosinase inhibition (in words)” value is “did not inhibit tyrosinase at all”. The IC50 in test [5] is under 2000 nM.

On to `NC(=S)NN=C(c1ccccc1)c1ccccc1` [thiosemicarbazone of benzophenone], for which, on mushroom tyrosinase [4], the “tyrosinase inhibition (in words)” value is on record as “efficient tyrosinase inhibitor”. Besides, the IC50 in test [5] is under 2000 nM.
